This passage reports logP and logD results from the SangsterLogP compilation.

Series [1] can be described thus: method code SF, from DOI: 10.2307/3575246, PMID: 7367588.
Series [2] is described as follows: method code SF-AS, from DOI: 10.1016/0378-5173(93)90388-v.
Series [3] in a line: method code SF-AS, from DOI: 10.1016/0006-2952(74)90620-0, PMID: 4822742. To be noted: pH 7.4.
Assay in series [4]: not given
The source holds these as a separate data set.

A short description of series [5]: method code SF-GLC, from DOI: 10.1002/etc.5620080910.
Series [6] in a line: method code SF-HPLC, from DOI: 10.1021/je049947x.
Assay in series [7]: not given
The source holds these as a separate data set.

Assay in series [8]: not given
This is another data set of the same source.

Series [9] in a line: method code SF-GLC, from DOI: 10.1021/es00131a005.
A short description of series [10]: method code SF, from Brown, J.; Yu, N.; Cory, M.; Bicknell, R.; Taylor, D. (1978). In vivo evaluation of the radiosensitizing and cytotoxic properties of newly synthesized electron-affinic drugs. 3, 206-211.
Assay in series [11]: not given
The source holds these as a separate data set.

Assay in series [12]: not given
This is another data set of the same source.

Series [13] can be described thus: method code SF-AS, from DOI: 10.1016/s0045-6535(00)00181-8, PMID: 11272912.
Assay in series [14]: not given
The source holds these as a separate data set.

Assay in series [15]: not given
The source holds these as a separate data set.

Series [16] in a line: method code SF-AS, from Ganga, L. X. J. S., & Zun-Yaob, L. H. W. (2009). Determination of lgKow and QSPR Study on Some Fluorobenzene Derivatives. Jiegou Huaxue, 28(10).
A short description of series [17]: method code SF, from Ganellin, C. R., & Durant, G. J. (1981). Histamine H2-receptor agonists and antagonists. Burgers Medicinal Chemistry, 3, 487-552. To be noted: pH 11.8.
A short description of series [18]: method code SF-GLC, from Boikov, Yu.; Shibaev, V.; Gaidamaka, V.; V'yunov, K. (1989). Study of correlation between extraction characteristics of glycidyl ethers and theri structure. 62(1)177-179.
Series [19] can be described thus: method code SF-GLC, from DOI: 10.1002/jps.2600620103, PMID: 4734195.
Series [20] in a line: method code SF, from DOI: 10.1021/jm020367+, PMID: 12502371.
Series [21] in a line: method code SF-AS, from DOI: 10.1016/0378-5173(80)90061-7.
Series [22] in a line: from KURIHARA, Norio.; Fujita, Toshio. (1983). Composition of Partition Coefficients of Polychlorinated Hydrocarbons (Commemoration Issue Dedicated to Professor Yuzo Inouye on the Occasion of his ….
Assay in series [23]: not given
The source holds these as a separate data set.

A short description of series [24]: method code SF, from DOI: 10.1016/j.jiec.2010.03.003.
Assay in series [25]: not given
This is another data set of the same source.

The nature of series [26]: method code SF, from Korenman, I. M.; Klyukvina, T. D. (1972). Extraction of methylfurfural from aqueous solutions. Zh. Prikl. Khim., 45(11)2697-2699.
Series [27] in a line: method code SF-HPLC, from DOI: 10.1016/0378-5173(83)90028-5.
A short description of series [28]: method code SF, from DOI: 10.1016/0005-2744(69)90103-x, PMID: 4387594.
A short description of series [29]: method code SF, from DOI: 10.1016/j.tca.2016.07.020. The settings on record: pH 7.4.
The nature of series [30]: method code SF-AS, from DOI: 10.1016/0039-9140(93)80165-n, PMID: 18965747. To be noted: pH 2.0.
Series [31] in a line: method code SF-AS, from DOI: 10.1016/0891-5849(94)00112-w, PMID: 7744299. To be noted: pH 7.5.
Series [32] can be described thus: method code SF-GLC, from DOI: 10.1271/bbb1961.46.2755.
Assay in series [33]: not given
The source holds these as a separate data set.

Series [34] can be described thus: method code SF-AS, from DOI: 10.1016/0003-9861(82)90097-2, PMID: 6284047. The settings on record: pH 7.4.
Series [35] can be described thus: method code SF-AS, from DOI: 10.1002/etc.5620181211.
Assay in series [36]: not given
The source holds these as a separate data set.

Series [37] is described as follows: method code SF-CR+AS, from Korenman, I. (1982). The influence of substituents on the partition of phenols between water and organic solvents. Russ. J. Phys. Chem., 56(3)458-460.
Series [38] can be described thus: method code SF-GLC, from DOI: 10.1021/ac00241a023.
Series [39] is described as follows: method code SF-AS, from DOI: 10.1016/0223-5234(93)90135-2. The settings on record: pH 12.0.
Assay in series [40]: not given
The source holds these as a separate data set.

Series [41] can be described thus: method code SF-RC, from DOI: 10.1002/jps.2600800111, PMID: 2013848.
The nature of series [42]: method code SF-HPLC, from DOI: 10.1080/02772248909357333.
The nature of series [43]: method code SF-AS, from DOI: 10.1021/jm0495273.s001, PMID: 15974600. To be noted: pH 7.4.
Series [44] is described as follows: method code SF-AS, from Kosanovic, D.; Dumanovic, D.; Jovanovic, J. (1988). Solubility in octanol And the octanol-water partition coefficients of some 4(5)- and 5-nitroimidazoles. 53(10)559-563.
The nature of series [45]: method code SF-TN, from DOI: 10.2116/analsci.13.897. To be noted: pH 2.0.
Series [46] can be described thus: method code SF, from DOI: 10.1021/bk-1995-0606.ch003.
Series [47] can be described thus: method code SF-TN, from DOI: 10.1085/jgp.71.1.93, PMID: 621494.
Assay in series [48]: not given
The source holds these as a separate data set.

Assay in series [49]: not given
This is another data set of the same source.

Series [50] is described as follows: method code SF-RC, from DOI: 10.1016/s0969-8051(01)00233-5, PMID: 11518650.

For the compound `CNC(=O)N(C)c1nnc(C(F)(F)F)s1`, the logP came out at 1.46.

`Cn1c(C(O)CO)cnc1[N+](=O)[O-]` (stereo unspecified): the logP in [1] was -0.89.

Turning to `CC1CCC(=O)N1` (stereo unspecified), the logP in [2] was -0.1.

Consider `CC1=NS(=O)(=O)c2cc(Cl)ccc2N1`, for which the logD (usually the decadic logarithm of the distribution of all forms, ionised or not, between an organic phase and buffer at a given pH) in [3] worked out at 1.08.

The compound `Cc1nccn1C` yielded a logP in series [4] of -0.04.

In turn, `O=[N+]([O-])c1ccc(Cl)cc1Cl` showed a logP in [5] of 3.05.

In turn, `CC(C)Nc1nc(N)nc(Cl)n1` showed a logP in [6] of 1.49.

On to `CON=C(C#N)C(=O)NCC(=O)O`, for which the logP in series [7] was -0.58.

`Clc1cccc(C(Cl)(Cl)Cl)n1` gave a logP in series [8] of 3.41.

As for `Clc1ccc(Cl)c(Cl)c1Cl`, the logP in series [9] came to 4.6.

On to `CC(O)Cn1ccnc1[N+](=O)[O-]` (stereo unspecified), for which the logP in [10] was -0.16.

`Oc1ccc(O)cc1` showed a logP in [11] of 0.61.

Take `Oc1c(Br)c(Br)c(Br)c(Br)c1Br`: in [12], the logP was 5.3.

The compound `O=Cc1cc(Br)ccc1O` showed a logP in series [13] of 2.5.

`CC(CCl)OC(C)CCl` (stereo unspecified): in [14], the logP was found to be 2.48.

`Nc1cc(Cl)c(S(N)(=O)=O)cc1S(N)(=O)=O`: in [15], the logP is -0.56.

Consider `Fc1ccc(F)cc1`, for which, in series [16], the logP worked out at 2.26.

Compound `NCCc1c[nH]cn1` registered a logD in series [17] of -0.7.

In [18], `CCOCC1CO1` (stereo unspecified) yielded a logP of 0.27.

`CC(C)C(C)O` (stereo unspecified) gave a logP in series [19] of 1.28.

As to `Nc1n[n+]([O-])c2cc(Cl)ccc2[n+]1[O-]`, the logP in [20] worked out at 0.46.

For `CCOC(=O)CCCO`, the logP in series [21] was 0.43.

In turn, `ClC1C=CCC(Cl)C1Cl` (stereo unspecified) displayed a logP in series [22] of 2.84.

With `S=C=Nc1ccc(Br)cc1`, the logP in series [23] was 4.03.

On to `COC(C)(C)C`, for which the logP in series [24] turned out to be 1.41.

Compound `COC(=O)c1ccco1` displayed a logP in [25] of 1.08.

`Cc1ccc(C=O)o1` yielded a logP in series [26] of 0.67.

`O=[N+]([O-])O[C@@H]1CO[C@H]2[C@@H]1OC[C@@H]2O` had a logP in [27] of -0.15.

Compound `Nc1ccccc1F` showed a logP in [28] of 1.26.

In the case of `NC(=S)c1ccncc1`, the log distribution coefficient (logD) in series [29] came out at 0.61.

As for `CC(C)(C)C(=O)O`, the logD in series [30] worked out at 1.42.

In series [31], `O=Nc1ccccc1` had a logD of 1.86.

Compound `CCCS(=O)(=O)CCC` registered a logP in series [32] of 0.39.

In series [33], `COCC(C)OC(C)=O` (stereo unspecified) had a logP of 0.56.

With `CC1(C)CCC=[N+]1[O-]`, the logD in [34] is -1.03.

Turning to `Cc1cccnc1N`, the logP in [35] is 0.01.

For the compound `Nc1cccc(O)c1`, in series [36], the logP was determined as 0.28.

`Nc1cc([N+](=O)[O-])cc(Cl)c1O`: in series [37], the logP was found to be 1.53.

`Clc1cccc(Cl)c1Cl` had a logP in [38] of 4.05.

Compound `NCCc1nccs1` returned a logD in series [39] of 0.16.

`Nc1cc(N=O)ccc1O` came in with a logP in series [40] of 0.03.

In turn, `Nc1ccc(S(=O)(=O)O)cc1` gave a logP in series [41] of -2.16.

In turn, `COc1nn(CSP(=S)(OC)OC)c(=O)s1` yielded a logP in series [42] of 2.22.

Consider `Nc1nc(S)c2[nH]cnc2n1`, for which the logD in series [43] is -0.16.

As for `CC(C)c1nc([N+](=O)[O-])c[nH]1`, the logP in series [44] is 0.9.

In series [45], `O=C(O)C1CCCC1` displayed a logD of 1.52.

For the compound `CCc1ccc[nH]1`, in [46], the logP stood at 1.59.

Turning to `CCCCC(O)C(=O)O` (stereo unspecified), the logP in [47] turned out to be 0.81.

For the compound `O=[N+]([O-])c1cc(Cl)ccc1Cl`, the logP in series [48] worked out at 3.09.

Consider `Oc1ccc(O)c(Cl)c1`, for which the logP in [49] came out at 1.4.

`CN(C)CCCF` returned a logP in series [50] of 1.27.
